The values below come from patent US11117931B2, “Antimicrobial peptide derived from Hp1404 peptide and uses thereof” (priority 2017, dated 2021).

The nature of series [1]: Cytotoxicity in normal cell line (MTT). The format is cell-based. As to conditions: human, HaCaT keratinocytes, read-out: Cell survival ability; for viability at 24 h, 6.25 µM: peptide concentration 6.25 μM; for viability at 24 h, 12.5 µM: peptide concentration 12.5 μM; for viability at 24 h, 25 µM: peptide concentration 25 μM; for viability at 24 h, 50 µM: peptide concentration 50 μM; for viability at 24 h, 100 µM: peptide concentration 100 μM; for viability at 24 h, 200 µM: peptide concentration 200 μM, HaCaT. The protocol:
To determine the cytotoxicity of the peptide produced by the method of Example 1 in normal cell line, toxicity was measured by using human keratinocytes (HaCaT cell line, Dr. N E. Fusenig, Heidelberg, Germany).
Specifically, HaCaT cells which have been cultured in DMEM medium containing 10% FBS (Fetal Bovine Serum) were aliquoted in a 96-well plate to have 2×10^5 cells per well. After culturing them for 24 hours, the cells were subjected to a treatment with Hp1404, Hp1404-T1, Hp1404-T1a, Hp1404-T1b, Hp1404-T1c, Hp1404-T1d, or Hp1404-T1e, each at concentration of 6.25, 12.5, 25.0, 50.0, 100.0 or 200.0 μM/well, followed by reaction for 24 hours in a 5% CO2 incubator. After 24 hours, a reaction solution containing 0.5 mg/ml MTT (Thiazolyl Blue Tetrazolium Bromide) dissolved in physiological saline (PBS) was added in an amount of 100 μl to each well and the reaction was allowed to occur for 4 hours. After that, the supernatant was removed, and, by dissolving MTT crystals that are formed by adding 200 μl of DMSO (dimethyl sulfoxide), the absorbance at 560 nm was measured to determine the cell survival ability.

Series [2] is described as follows: Stability against trypsin enzyme (RP-HPLC). The format is in vitro ADME. As to conditions: 20 nM trypsin, 37° C., read-out: amount of remaining peptide; for remaining at 1 h, 200 μg/mL: reaction for 1 hour; for remaining at 2 h, 200 μg/mL: reaction for 2 hours. The protocol:
To determine whether or not the peptides prepared by the method of Example 1 have stability against an enzyme, RP-HPLC (reverse-phase HPLC) was carried out. Specifically, 20 μg of the peptide was reacted with 100 μl of trypsin at concentration of 20 nM for 1 to 2 hours at 37° C. After the reaction, 20 μl of the reaction product was applied to RP-HPLC, and the amount of remaining peptide was examined.

The test system of series [3] is lipopolysaccharide (LPS) isolated from P. aeruginosa. Description: Binding ability between lipopolysaccharide (LPS) and peptide. As to conditions: peptide at 1×MIC. On the procedure: By using the peptides prepared by the method of Example 1, binding to lipopolysaccharide (LPS), which is a constitutional component of a cell wall of Gram-negative bacteria, was examined. LPS used in the present invention was isolated from P. aeruginosa. Lipopolysacchride (0 to 100 μg/ml) was diluted with 10 mM sodium phosphate buffer (pH 7.2), reacted with each peptide at a concentration of 1× or 2×MIC, and then cultured with the bacteria at 2×10^5 CFU/ml. By measuring the absorbance at 600 nm, the binding ability to the peptide was determined. Additionally, after reacting 0.1% […] with the peptide (40 μM) in an incubator, the secondary structure was examined by circular dichroism (CD) spectroscopy.

Series [4] deals with outer membrane of P. aeruginosa. The series is described as follows: Outer membrane effect (NPN fluorescence). The following applies: peptide at 1×, 2× or 4×MIC. The format is cell-based. On the procedure:
By using the peptides prepared by the method of Example 1, effect of the peptide on the outer membrane and inner membrane of bacteria was examined. […] However, once the hydrophobic part is exposed as a result of damage occurring in cell wall, NPN emits fluorescence. After culturing each strain in TSB and NB medium, the strain was adjusted such that it has OD600 value of 0.2 in 5 mM HEPES buffer solution. After allowing the reaction to occur between 10 μM NPN dissolved in 95% ethanol and the bacteria by adding them in a 96-well black plate, the peptide at a concentration of 1×, 2× or 4×MIC and 0.1% Triton X-100 were further added, and then the fluorescence was measured.

Series [5] concerns Pseudomonas aeruginosa strain 1034. The series is described as follows: In vivo antimicrobial activity, infected skin wound. Further details: species or system BALB/c mouse; number of colonies from skin tissues: reference not given here. The following applies: intracutaneous. On the procedure:
By using Hp1404-T1e found to have the most excellent antimicrobial activity among the peptides that are prepared by the method of Example 1, in vivo antimicrobial activity was measured. Specifically, among the Pseudomonas aeruginosa strains, strain 1034 was selected and tested. The strain was prepared by washing 3 times with PBS buffer. Ciprofloxacin antibiotic was used as a control group. A BALB/c mouse (6 week old) was shaved clean and a wound with pre-determined size was created thereon. Then, the wound site was injected intracutaneously with Pseudomonas aeruginosa strain 1034 ([…], 2×10^5 CFU/ml). After the bacterial infection, the peptide and antibiotic, each prepared at a concentration of 0.1 mg/ml and 0.2 mg/ml, respectively, were intracutaneously injected, and the observation was made everyday. On each day, the skin tissues were sampled and smeared on an NB solid medium. The smeared medium was incubated in an incubator for 18 hours, and the number of grown colonies was counted and expressed in %.

Where no end group is shown, it is not given here.

Usually fraction remaining stands for what is left of the initial amount, in per cent. GILGKLWEGVKSIF-NH2 [Hp1404]: in series [1], the viability at 24 h, 6.25 µM turned out to be 100%; the viability at 24 h, 12.5 µM was determined as 100%; the viability at 24 h, 25 µM came to 100%; the viability at 24 h, 50 µM worked out at 30.5%. For the same substance, in series [1], the viability at 24 h, 100 µM amounted to 0.11% and the viability at 24 h, 200 µM is 0%. Also, in series [2], the amount remaining at 1 h, 200 μg/mL is 60% and the share remaining at 2 h, 200 μg/mL came to 45%. Further, the “binding to LPS, rank order” value in series [3] was “binding to LPS increases in order of Hp1404-T1e, Hp1404-T1d, Hp1404-T1c, and Hp1404”. Besides, the “NPN fluorescence (effect on outer membrane)” value in series [4] is listed as “increases in treatment concentration-dependent manner”.
In the case of ILKKLLKKVKKI-NH2 [Hp1404-T1e], in series [1], the viability at 24 h, 6.25 µM worked out at 100%; the viability at 24 h, 12.5 µM worked out at 100%; the viability at 24 h, 25 µM came out at 100%; the viability at 24 h, 50 µM stood at 100%. In series [1], the viability at 24 h, 100 µM is 100% and the viability at 24 h, 200 µM was found to be 100%. Also, in series [2], the amount remaining at 1 h, 200 μg/mL was no less than 80% and the fraction remaining at 2 h, 200 μg/mL stood at 80%. For the same substance, the “binding to LPS, rank order” value in series [3] is “binding to LPS increases in order of Hp1404-T1e, Hp1404-T1d, Hp1404-T1c, and Hp1404”. Also, the wound healing entry in series [5] (0.1 mg/ml and 0.2 mg/ml, observed everyday) was “wound healing effect in peptide concentration-dependent manner”. In addition, the “number of colonies from skin tissues” value in series [5] (Day 5, 0.1 mg/ml treatment condition) is given as 40%. Further, in series [5] (Day 5, 0.2 mg/ml treatment condition), the “number of colonies from skin tissues” value is 20%.
As for ILKKLLKKVKSI-NH2 [Hp1404-T1d], in series [1], the viability at 24 h, 6.25 µM is 100%; the viability at 24 h, 12.5 µM was 53.9%; the viability at 24 h, 25 µM is 38.9%; the viability at 24 h, 50 µM stood at 33.1%. Besides, the viability at 24 h, 100 µM in series [1] stood at 34.6%. Also, in series [2], the share remaining at 1 h, 200 μg/mL was no less than 80% and the fraction remaining at 2 h, 200 μg/mL was 80%. In addition, the “binding to LPS, rank order” value in series [3] was “binding to LPS increases in order of Hp1404-T1e, Hp1404-T1d, Hp1404-T1c, and Hp1404”.
